Measured values published in PubChem BioAssay (NCI).
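GI50 is the concentration that inhibits growth by half. TGI: concentration producing complete growth inhibition.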

What was measured:
Experiment in all cases: inhibition of tumour cell growth, NCI panel, 384-well format
[1] = system: KM12 colon
[2] = system: RPMI-8226 leukemia
[3] = system: NCI-H522 lung
[4] = system: NCI-H23 lung
[5] = system: ACHN renal
[6] = system: M14 melanoma
[7] = system: MALME-3M melanoma
[8] = system: MDA-MB-468 breast
[9] = system: HT29 colon
[10] = system: TK-10 renal
[11] = system: 786-0 renal
[12] = system: CCRF-CEM leukemia
[13] = system: T-47D breast
[14] = system: A498 renal
[15] = system: MDA-MB-231 breast
[16] = system: UO-31 renal
[17] = system: NCI-H226 lung
[18] = system: HS 578T breast
[19] = system: SF-539 CNS
[20] = system: A549 NSCLC
[21] = system: SK-MEL-5 melanoma
[22] = system: SF-295 CNS
[23] = system: OVCAR-3 ovarian
[24] = system: SNB-75 CNS
[25] = system: MCF7 breast
[26] = system: MDA-MB-435 melanoma
[27] = system: SN12C renal
[28] = system: HL-60(TB) leukemia
[29] = system: UACC-257 melanoma
[30] = system: HOP-92 NSCLC
[31] = system: HOP-62 NSCLC
[32] = system: PC-3 prostate
[33] = system: SF-268 CNS
[34] = system: MOLT-4 leukemia
[35] = system: DU-145 prostate
[36] = system: IGROV1 ovarian
[37] = system: OVCAR-4 ovarian
[38] = system: RXF 393 renal
[39] = system: HCC-2998 colon
[40] = system: EKVX NSCLC
[41] = system: COLO 205 colon
[42] = system: HCT-15 colon
[43] = system: LOX IMVI melanoma
[44] = system: UACC-62 melanoma
[45] = system: NCI-H322M lung
[46] = system: NCI/ADR-RES ovarian
[47] = system: BT-549 breast
[48] = system: NCI-H460 NSCLC
[49] = system: SNB-19 CNS
[50] = system: SW-620 colon
[51] = system: K-562 leukemia
[52] = system: SR leukemia
[53] = system: CAKI-1 renal
[54] = system: OVCAR-5 ovarian
[55] = system: SK-MEL-28 melanoma
[56] = system: SK-OV-3 ovarian
[57] = system: OVCAR-8 ovarian

C=CC(=O)N1CCC(c2ccc(C(N)=O)c(-c3ccc(Oc4ccccc4)cc3)n2)CC1
GI50 [1]: 37.3 µM
TGI [1]: > 100 µM
GI50 [2]: 15.1 µM
TGI [2]: 29.3 µM
GI50 [3]: 12.2 µM
TGI [3]: 30.7 µM
GI50 [4]: 28.3 µM
TGI [4]: > 100 µM
GI50 [5]: 32.4 µM
TGI [5]: > 100 µM
GI50 [6]: 33.9 µM
TGI [6]: > 100 µM
GI50 [7]: 29.7 µM
TGI [7]: 83.4 µM
GI50 [8]: 3.99 µM
TGI [8]: 10.2 µM
GI50 [9]: 59.6 µM
TGI [9]: > 100 µM
GI50 [10]: 25.2 µM
TGI [10]: 81.4 µM
GI50 [11]: 29.2 µM
TGI [11]: > 100 µM
GI50 [12]: 17.4 µM
TGI [12]: 34.2 µM
GI50 [13]: 16.9 µM
TGI [13]: 87.2 µM
GI50 [14]: 21.3 µM
TGI [14]: 69.9 µM
GI50 [15]: 30.8 µM
TGI [15]: > 100 µM
GI50 [16]: 74.1 µM
TGI [16]: > 100 µM
GI50 [17]: 22.7 µM
TGI [17]: 72.4 µM
GI50 [18]: 21.1 µM
TGI [18]: 58.9 µM
GI50 [19]: 27 µM
TGI [19]: 78.5 µM
GI50 [20]: 34.8 µM
TGI [20]: > 100 µM
GI50 [21]: 18 µM
TGI [21]: 35.8 µM
GI50 [22]: 41.1 µM
TGI [22]: > 100 µM
GI50 [23]: 27.1 µM
TGI [23]: 66.5 µM
GI50 [24]: 37.6 µM
TGI [24]: > 100 µM
GI50 [25]: 28.6 µM
TGI [25]: > 100 µM
GI50 [26]: 38.7 µM
TGI [26]: > 100 µM
GI50 [27]: 33.1 µM
TGI [27]: > 100 µM
GI50 [28]: 15 µM
TGI [28]: 28.3 µM
GI50 [29]: 18.3 µM
TGI [29]: 42.1 µM
GI50 [30]: 20 µM
TGI [30]: 91 µM
GI50 [31]: 25.4 µM
TGI [31]: 83.7 µM
GI50 [32]: 41.2 µM
TGI [32]: > 100 µM
GI50 [33]: 35.3 µM
TGI [33]: > 100 µM
GI50 [34]: 12.7 µM
TGI [34]: 25.7 µM
GI50 [35]: 24.7 µM
TGI [35]: 79.9 µM
GI50 [36]: 21.3 µM
TGI [36]: 56 µM
GI50 [37]: 25.7 µM
TGI [37]: 69.7 µM
GI50 [38]: 24.9 µM
TGI [38]: 73.5 µM
GI50 [39]: 29.5 µM
TGI [39]: 90.3 µM
GI50 [40]: 22.6 µM
TGI [40]: 84.1 µM
GI50 [41]: 89.8 µM
TGI [41]: > 100 µM
GI50 [42]: 30.6 µM
TGI [42]: > 100 µM
GI50 [43]: 25.1 µM
TGI [43]: 62.9 µM
GI50 [44]: 40.4 µM
TGI [44]: > 100 µM
GI50 [45]: 25.3 µM
TGI [45]: > 100 µM
GI50 [46]: 16.6 µM
TGI [46]: 37.2 µM
GI50 [47]: 17.9 µM
TGI [47]: 41.8 µM
GI50 [48]: 27.4 µM
TGI [48]: 71.5 µM
GI50 [49]: 39.7 µM
TGI [49]: > 100 µM
GI50 [50]: 32.9 µM
TGI [50]: 84.9 µM
GI50 [51]: 28.8 µM
TGI [51]: > 100 µM
GI50 [52]: 11.7 µM
TGI [52]: 26.7 µM
GI50 [53]: 23.5 µM
TGI [53]: > 100 µM
GI50 [54]: > 100 µM
TGI [54]: > 100 µM
GI50 [55]: 95.1 µM
TGI [55]: > 100 µM
GI50 [56]: 26.9 µM
TGI [56]: > 100 µM
GI50 [57]: 23.8 µM
TGI [57]: 66.1 µM
